{"source": "patent US10131644B2", "about": "“Aryl sultam derivatives as RORc modulators” (Genentech, Inc., priority 2014, dated 2018)", "data": [{"biological_target": "T1, RORc (Homo sapiens, UniProt P51449)", "T1 sequence (P51449 269-508 limits assumed)": "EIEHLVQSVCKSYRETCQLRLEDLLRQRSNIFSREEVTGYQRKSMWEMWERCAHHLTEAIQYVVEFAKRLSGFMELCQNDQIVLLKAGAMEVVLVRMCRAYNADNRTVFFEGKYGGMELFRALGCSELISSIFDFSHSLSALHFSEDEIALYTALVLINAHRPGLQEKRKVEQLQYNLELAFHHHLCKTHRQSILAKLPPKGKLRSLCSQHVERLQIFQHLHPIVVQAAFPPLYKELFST", "experiment": "In vitro RORc ligand binding assay (25-[3H]hydroxycholesterol displacement)", "details": "IC50, IC50 values for RORc; unit inferred", "units": {"IC50": "µM"}, "values": [{"smiles": "C[C@H]1CC[C@H](c2ccccc2)S(=O)(=O)N1Cc1ccc(C2(CCC(N)=O)CCOCC2)cc1F", "note": "[Compound 87, 3-[4-[3-fluoro-4-[[(3S,6R)-3-methyl-1,1-dioxo-6-phenyl-thiazinan-2-yl]methyl]phenyl]tetrahydropyran-4-yl]propanamide]", "IC50": 0.0088}, {"smiles": "COC(=O)C1(c2ccc(CN3[C@@H](C)CC[C@H](c4ccccc4)S3(=O)=O)cc2)CCOCC1", "note": "[Compound 27, 4-[4-((3S,6R)-3-Methyl-1,1-dioxo-6-phenyl-[1,2]thiazinan-2-ylmethyl)-phenyl]-tetrahydro-pyran-4-carboxylic acid methyl ester]", "IC50": 0.5}, {"smiles": "C[C@H]1CC[C@H](c2ccccc2)S(=O)(=O)N1Cc1ccc(C2(/C=C/C#N)CCOCC2)cc1F", "note": "[Compound 72, (E)-3-[4-[3-fluoro-4-[[(3S,6R)-3-methyl-1,1-dioxo-6-phenyl-thiazinan-2-yl]methyl]phenyl]tetrahydropyran-4-yl]prop-2-enenitrile]", "IC50": 0.0087}, {"smiles": "C[C@H]1CC[C@H](c2ccccc2)S(=O)(=O)N1Cc1cc(F)c(C2(N)COC2)cc1F", "note": "[Compound 190, 3-[2,5-difluoro-4-[[(3S,6R)-3-methyl-1,1-dioxo-6-phenyl-thiazinan-2-yl]methyl]phenyl]oxetan-3-amine]", "IC50": 0.0715}, {"smiles": "C[C@H]1CC[C@H](c2ccccc2)S(=O)(=O)N1Cc1cc(F)c(C2(CO)CCC(O)CC2)cc1F", "note": "(stereo partly drawn) [Compound 129, 4-[2,5-difluoro-4-[[(3S,6R)-3-methyl-1,1-dioxo-6-phenyl-thiazinan-2-yl]methyl]phenyl]-4-(hydroxymethyl)cyclohexanol]", "IC50": 0.0081}, {"smiles": "CNC(=O)COC1(c2cc(F)c(CN3[C@@H](C)CC[C@H](c4ccccc4)S3(=O)=O)cc2F)CCOCC1", "note": "[Compound 154, 2-[4-[2,5-difluoro-4-[[(3S,6R)-3-methyl-1,1-dioxo-6-phenyl-thiazinan-2-yl]methyl]phenyl]tetrahydropyran-4-yl]oxy-N-methyl-acetamide]", "IC50": 0.0057}, {"smiles": "C[C@H]1CC[C@H](c2ccccc2)S(=O)(=O)N1Cc1cc(F)c(C2(OCC(N)=O)COC2)cc1F", "note": "[Compound 138, 2-[3-[2,5-difluoro-4-[[(3S,6R)-3-methyl-1,1-dioxo-6-phenyl-thiazinan-2-yl]methyl]phenyl]oxetan-3-yl]oxyacetamide]", "IC50": 0.0026}, {"smiles": "COC1(OC)CC(C(N)=O)(c2ccc(CN3[C@@H](C)CC[C@H](c4ccccc4)S3(=O)=O)c(F)c2)C1", "note": "[Compound 181, 1-[3-fluoro-4-[[(3S,6R)-3-methyl-1,1-dioxo-6-phenyl-thiazinan-2-yl]methyl]phenyl]-3,3-dimethoxy-cyclobutanecarboxamide]", "IC50": 0.0237}, {"smiles": "CC(=O)N[C@H]1CC[C@](C#N)(c2ccc(CN3[C@@H](C)CC[C@@H](c4ccccc4)S3(=O)=O)c(F)c2)CC1", "note": "[Compound 33, N-{4-Cyano-4-[3-fluoro-4-((3S,6S)-3-methyl-1,1-dioxo-6-phenyl-[1,2]thiazinan-2-ylmethyl)-phenyl]-cyclohexyl}-acetamide]", "IC50": 1.8}, {"smiles": "C[C@H]1CC[C@H](c2ccccc2)S(=O)(=O)N1Cc1ccc(C2(NCC(=O)O)CCOCC2)cc1F", "note": "[Compound 164, 2-[[4-[3-fluoro-4-[[(3S,6R)-3-methyl-1,1-dioxo-6-phenyl-thiazinan-2-yl]methyl]phenyl]tetrahydropyran-4-yl]amino]acetic acid]", "IC50": 0.112}, {"smiles": "C[C@H]1CC[C@H](c2ccccc2)S(=O)(=O)N1Cc1ccc(C2(CO)CC2)cc1F", "note": "[Compound 112, [1-[3-fluoro-4-[[(3S,6R)-3-methyl-1,1-dioxo-6-phenyl-thiazinan-2-yl]methyl]phenyl]cyclopropyl]methanol]", "IC50": 0.206}, {"smiles": "C[C@H]1CC[C@H](c2ccccc2)S(=O)(=O)N1Cc1ccc(C2(C(=O)NCCN(C)C)CCOCC2)cc1F", "note": "[Compound 53, N-[2-(dimethylamino)ethyl]-4-[3-fluoro-4-[[(3S,6R)-3-methyl-1,1-dioxo-6-phenyl-thiazinan-2-yl]methyl]phenyl]tetrahydropyran-4-carboxamide]", "IC50": 0.845}, {"smiles": "C[C@H]1CC[C@H](c2ccccc2)S(=O)(=O)N1Cc1ccc(C2(C(=O)NCCN)CCOCC2)cc1F", "note": "[Compound 52, N-(2-aminoethyl)-4-[3-fluoro-4-[[(3S,6R)-3-methyl-1,1-dioxo-6-phenyl-thiazinan-2-yl]methyl]phenyl]tetrahydropyran-4-carboxamide]", "IC50": 0.48}, {"smiles": "CC(OC1(c2ccc(CN3[C@@H](C)CC[C@H](c4ccccc4)S3(=O)=O)c(F)c2)CCOCC1)C(N)=O", "note": "(stereo partly drawn) [Compound 174, 2-[4-[3-fluoro-4-[[(3S,6R)-3-methyl-1,1-dioxo-6-phenyl-thiazinan-2-yl]methyl]phenyl]tetrahydropyran-4-yl]oxypropanamide]", "IC50": 0.0379}, {"smiles": "C[C@H](O)CNC(=O)C1(c2ccc(CN3[C@@H](C)CC[C@H](c4ccccc4)S3(=O)=O)c(F)c2)CCOCC1", "note": "[Compound 63, 4-[3-fluoro-4-[[(3S,6R)-3-methyl-1,1-dioxo-6-phenyl-thiazinan-2-yl]methyl]phenyl]-N-[(2S)-2-hydroxypropyl]tetrahydropyran-4-carboxamide]", "IC50": 0.036}, {"smiles": "C[C@H]1CC[C@@H](c2ccccc2)S(=O)(=O)N1Cc1cc(F)c([C@]2(O)CC[C@@H](n3cnnc3)CC2)cc1F", "note": "[Compound 36, 1-[2,5-Difluoro-4-((3S,6S)-3-methyl-1,1-dioxo-6-phenyl-[1,2]thiazinan-2-ylmethyl)-phenyl]-4-[1,2,4]triazol-4-yl-cyclohexanol]", "IC50": 0.013}, {"smiles": "C[C@H]1CC[C@H](c2ccccc2)S(=O)(=O)N1Cc1ccc(C2(COCCCO)CCOCC2)cc1F", "note": "[Compound 92, 3-[[4-[3-fluoro-4[[(3S,6R)-3-methyl-1,1-dioxo-6-phenyl-thiazinan-2-yl]methyl]phenyl]tetrahydropyran-4-yl]methoxy]propan-1-ol]", "IC50": 0.0758}, {"smiles": "C[C@H]1CC[C@H](c2ccccc2)S(=O)(=O)N1Cc1ccc(C2(CNS(C)(=O)=O)CCOCC2)cc1F", "note": "[Compound 71, N-[[4-[3-fluoro-4-[[(3S,6R)-3-methyl-1,1-dioxo-6-phenyl-thiazinan-2-yl]methyl]phenyl]tetrahydropyran-4-yl]methyl]methanesulfonamide]", "IC50": 0.0767}, {"smiles": "C[C@H]1CC[C@H](c2ccccc2)S(=O)(=O)N1Cc1ccc([C@]2(C#N)CC[C@@H](n3cnnc3)CC2)cc1", "note": "[Example 10, 1-[4-((3S,6R)-3-Methyl-1,1-dioxo-6-phenyl-[1,2]thiazinan-2-ylmethyl)-phenyl]-4-[1,2,4]triazol-4-yl-cyclohexanecarbonitrile]", "IC50": 0.15}, {"smiles": "COC(CNC1(c2cc(F)c(CN3[C@@H](C)CC[C@H](c4ccccc4)S3(=O)=O)cc2F)CCOCC1)OC", "note": "[Compound 189, 4-[2,5-difluoro-4-[[(3S,6R)-3-methyl-1,1-dioxo-6-phenyl-thiazinan-2-yl]methyl]phenyl]-N-(2,2-dimethoxyethyl)tetrahydropyran-4-amine]", "IC50": 0.071}, {"smiles": "C[C@H]1CC[C@H](c2ccccc2)S(=O)(=O)N1Cc1ccc(C2(NC(=O)CO)CCOCC2)cc1F", "note": "[Compound 95, N-[4-[3-fluoro-4-[[(3S,6R)-3-methyl-1,1-dioxo-6-phenyl-thiazinan-2-yl]methyl]phenyl]tetrahydropyran-4-yl]-2-hydroxy-acetamide]", "IC50": 0.122}, {"smiles": "C[C@H]1CC[C@H](c2ccccc2)S(=O)(=O)N1Cc1ccc(C2(CCCO)CCOCC2)cc1F", "note": "[Compound 81, 3-[4-[3-fluoro-4-[[(3S,6R)-3-methyl-1,1-dioxo-6-phenyl-thiazinan-2-yl]methyl]phenyl]tetrahydropyran-4-yl]propan-1-ol]", "IC50": 0.0062}, {"smiles": "C[C@H]1CC[C@H](c2ccccc2)S(=O)(=O)N1Cc1ccc(OCC2(C)CCOCC2)cc1F", "note": "[Example 2, (3S,6R)-2-[2-Fluoro-4-(4-methyl-tetrahydro-pyran-4-ylmethoxy)-benzyl]-3-methyl-6-phenyl-[1,2]thiazinane 1,1-dioxide]", "IC50": 0.067}, {"smiles": "C[C@@H](O)CNC(=O)C1(c2ccc(CN3[C@@H](C)CC[C@H](c4ccccc4)S3(=O)=O)c(F)c2)CCOCC1", "note": "[Compound 66]", "IC50": 0.0474}, {"smiles": "CCOC(=O)C[C@H](O)C1(c2ccc(CN3[C@@H](C)CC[C@H](c4ccccc4)S3(=O)=O)c(F)c2)CCOCC1", "note": "[Compound 115, ethyl (3S)-3-[4-[3-fluoro-4-[[(3S,6R)-3-methyl-1,1-dioxo-6-phenyl-thiazinan-2-yl]methyl]phenyl]tetrahydropyran-4-yl]-3-hydroxy-propanoate]", "IC50": 0.0395}, {"smiles": "C[C@H]1CC[C@H](c2ccccc2)S(=O)(=O)N1Cc1cc(F)c(C2(CO)CCOCC2)cc1F", "note": "[Compound 101, [4-[2,5-difluoro-4-[[(3S,6R)-3-methyl-1,1-dioxo-6-phenyl-thiazinan-2-yl]methyl]phenyl]tetrahydropyran-4-yl]methanol]", "IC50": 0.009}, {"smiles": "C[C@H]1CC[C@H](c2ccccc2)S(=O)(=O)N1Cc1ccc(C2(CCC(=O)O)CCOCC2)cc1F", "note": "[Compound 84, 3-[4-[3-fluoro-4-[[(3S,6R)-3-methyl-1,1-dioxo-6-phenyl-thiazinan-2-yl]methyl]phenyl]tetrahydropyran-4-yl]propanoic acid]", "IC50": 0.0492}, {"smiles": "C[C@@H](NC1(c2ccc(CN3[C@@H](C)CC[C@H](c4ccccc4)S3(=O)=O)c(F)c2)CCOCC1)C(N)=O", "note": "[Compound 180, (2R)-2-[[4-[3-fluoro-4-[[(3S,6R)-3-methyl-1,1-dioxo-6-phenyl-thiazinan-2-yl]methyl]phenyl]tetrahydropyran-4-yl]amino]propanamide]", "IC50": 0.0067}, {"smiles": "C[C@H]1CC[C@H](c2ccccc2)S(=O)(=O)N1Cc1ccc(C2(O)CCOCC2)cc1F", "note": "[Compound 69, 4-[3-fluoro-4-[[(3S,6R)-3-methyl-1,1-dioxo-6-phenyl-thiazinan-2-yl]methyl]phenyl]tetrahydropyran-4-ol]", "IC50": 0.093}, {"smiles": "CC(=O)N1CCC(OCC(=O)O)(c2cc(F)c(CN3[C@@H](C)CC[C@H](c4ccccc4)S3(=O)=O)cc2F)CC1", "note": "[Compound 137, 2-[[1-acetyl-4-[2,5-difluoro-4-[[(3S,6R)-3-methyl-1,1-dioxo-6-phenyl-thiazinan-2-yl]methyl]phenyl]-4-piperidyl]oxy]acetic acid]", "IC50": 0.0179}]}]}
